Entries after “also recorded” stand apart in the source; their conditions may differ.

The target in experiment [1] is T1, αSyn (Homo sapiens, UniProt P37840). In words: Cellular oligomerization assay (split Gaussia luciferase complementation in H4 cells). Format: cell-based. The following applies: maximal concentrations not showing toxicity, 0.3% DMSO. Here is the method: H4 neuroglioma cells (HTB-148; ATCC) were passaged in DME containing 10% fetal calf serum (FCS). They were plated into 10 cm dishes at 7.5×10^5 cells per dish and the following day transfected with DNA and Fugene (Promega, Madison, WI) at a ratio of 3:1 with 7 μg each of Syn-Luc1 (S1) and Syn-Luc2 (S2) plasmids, which are also referred to as syn-hGluc(1) and syn-hGLuc(2) respectively (see Outeiro, T. F. et al. Plos One 3, e1867, incorporated herein by reference in entirety) and 3 μg of red firefly expressing plasmid (pCMV-Red firefly Luc, ThermoFisher, Waltham, MA) per dish according to the manufacturer's directions. S1 and S2 plasmids express αSyn containing split Gaussia luciferase with either the N-terminal fragment (S1) or C-terminal fragment (S2) attached to the C-terminus of αSyn. After 24 hours, the DNA containing media was removed and cells were fed fresh DME media containing 10% FCS. […] Gaussia luciferase activity was measured in the dark 0.1 sec after injection of 100 μl/well of […] coelenterazine, substrate (NanoLight, Pinetop, AZ) using a 2 sec integration on a Veritas Microplate Luminometer (Promega, Madison, WI). The cells were subsequently assayed for red Firefly activity using the ONE-Glo™ Luciferase Assay System kit (Promega, Madison, WI) on a Spectramax M5 (Molecular Devices, San Jose, CA) plate reader as a normalization measure. […]

A further experiment deals with A53T αSyn. The experiment in a line: Dopaminergic neuron viability assay, A53T αSyn adenovirus transduced primary midbrain cultures. The format is cell-based, rat. The procedure: Primary midbrain cultures were prepared and dopaminergic neuronal viability in the presence and absence of αSyn was assessed as previously described and repeated herein. Primary midbrain cultures were prepared from embryonic day 17 embryos of Sprague-Dawley rats using methods reviewed and approved by the Purdue Animal Care and Use Committee as described previously. After dissection, the cells were plated into a poly-L-lysine-treated 48-well plate at a density of 163,500 cells per well. Four days later, the cells were treated with cytosine arabinofuranoside (AraC) (20 μM) for 48 hours to inhibit the growth of glial cells. The cultures were used for measurements of dopaminergic neuron viability at 7 days in vitro. […] In order to determine the viability of dopaminergic neurons, MAP2- and TH-positive neurons were counted in 10 to 15 randomly chosen observation fields in a blinded manner using a Nikon TE2000-U inverted fluorescence microscope (Nikon Instruments, Melville NY) with a 20× objective. In the control conditions, and in conditions where the compound was neuroprotective, typically 500 to 1,300 MAP2-positive neurons were counted, a range that corresponds to 20 to 50 TH-positive neurons. The data were expressed as the ratio of the TH-positive neurons to the MAP2-positive neurons. […]

Experiment [2] addresses T1, αSyn. In words: seeded αSyn fibrillization assay (αSyn seeds added at initiation). The format is biochemical. Set-up: made in house; host or cells: E. coli BL21(DE3), pET-21d. Here is the method:
Fibrillization assays. Prior to each aggregation assay, purified αSyn at 5 mg/mL was treated with 6M guanidine and dialyzed 36 hours in a 3500 MW cutoff Slide-A-lyzer with three changes of 20 mM sodium phosphate and 100 mM NaCl pH 7.4 buffer. αSyn was centrifuged at 130,000 g for 40 minutes in a Beckman Ultracentrifuge to remove seeding species and supernatant used for assays. For initial testing, 60 mM compound in DMSO was diluted to 300 μM in 0.5% DMSO and controls contained equivalent DMSO concentrations. Assay samples contained 20 μM Thioflavin T, filtered through a 0.45 μm Acrodisc filter prior to each assay, 70 μM αSyn in 20 mM sodium phosphate and 100 mM NaCl pH 7.4. One teflon bead, (0.125″ PTFE, Grade 2 polished) was placed in each well of a 96 well black with clear bottom assay plate (Corning) in a total volume of 500 μL. The plate was sealed with Mylar and parafilm, placed at 37° C. in a Tecan F200Pro Plate Reader and shaken at an amplitude of 6 mm for 120 hours continuously except for a brief time during reading of the plate. Thioflavin T fluorescence was detected by excitation at 440 nm and reading emissions at 485 nm each 60 minutes throughout the assay. […] Data were analyzed in Excel using XL-fit sigmoidal model #600 and when normalized, comparing fluorescence values at 50 hours for compounds as a percentage of DMSO control.

Consider `CNC(=O)c1cc(O)ccc1N` [Compound 576755, 2-amino-5-hydroxy-N-methylbenzamide], for which the “impact on cellular αSyn oligomerization” value at αSyn [1] is “reproducibly reduced cellular oligomers; also recorded: reduces αSyn oligomerization”. The “effect on A53T αSyn neurotoxicity (TH-positive/MAP2-positive neurons)” value with A53T αSyn (10 μM) is listed as “a trend towards a similar inhibitory effect”; with A53T αSyn (60 μM) it was “suppressed A53T αSyn neurotoxicity; also recorded: alleviates loss of dopaminergic neurons”. The “impact on seeded fibrillization” value on αSyn [2] (preformed αSyn fibrils/protofibrils added at initiation) is “blocks fibrillization; also recorded: anti-aggregation activity”. In addition, on αSyn [2] (seeded fibrillization, time in the incubation), the “time at which activity is first seen in seeded fibrillization” value was not above 2 h.

Source of the values: patent US12553889B2, “Small molecules targeting the intrinsically disordered structural ensemble of α-synuclein protect against diverse α-synuclein mediated dysfunctions” (The Regents of the University of California, priority 2019, dated 2026).
